Values quoted from earlier work in patent US20070269478A1, “METHOD OF PREPARING ACELLULARIZED, BIOCOMPATIBLE, IMPLANTABLE MATERIAL” (priority 2006, published 2007).

Columns and labels:
[1] = α-amino acids with acidic side chains
[2] = for pK2: amino group, glutamic acid vs. γ-aminobutyric; for pK5: primary amine basicity, glycine vs. metilamine

Compound | pH above which there is an excess of negative charge [1] | pK2 [2] | pK5 [2]
N[C@@H](CCC(=O)O)C(=O)O [glutamic acid] | ~4.2 | 9.76 | 
NCC(=O)O [glycine] |  |  | 9.60
N[C@@H](CCS(=O)(=O)O)C(=O)O [homocysteic acid] | ~2.2 |  | 
CN [metilamine] |  |  | 10.65
NCCCC(=O)O [γ-aminobutyric, 4-aminobutanoic acid] |  | 10.56 | 
